Laboratory results taken from patent US11505543B2, “4-oxo-3,4-dihydroquinazoline compounds as inhibitors of human immunodeficiency virus replication” (VIIV HEALTHCARE UK (NO.5) LIMITED, priority 2018, dated 2022).
pEC50: −log10 of the molar value.

How the values were obtained:
[1] = test system: recombinant NL4-3 virus (nef section replaced with Renilla luciferase gene) in MT-2 cells; test: HIV cell culture assay (antiviral activity, luciferase readout); format: cell-based; settings: Renilla, NL43, MT-2 cells infected for 4-5 days with recombinant NL4-3 Renilla luciferase virus, serial dilutions of compound
Method: HIV cell culture assay—MT-2 cells, 293T cells and the proviral DNA clone of NL4-3 virus were obtained from the NIH AIDS Research and Reference Reagent Program. MT-2 cells were propagated in RPMI 1640 media supplemented with 10% heat inactivated fetal bovine serum (FBS), 100 μg/ml penicillin G and up to 100 units/mL streptomycin. The 293T cells were propagated in DMEM media supplemented with 10% heat inactivated FBS, 100 μg/mL penicillin G and 100 μg/mL streptomycin. A recombinant NL4-3 proviral clone, in which a section of the nef gene was replaced with the Renilla luciferase gene, was used to make the reference virus used in these studies. The recombinant virus was prepared through transfection of the recombinant NL4-3 proviral clone into 293T cells using Transit-293 Transfection Reagent from Mirus Bio LLC (Madison, Wis.). Supernatent was harvested after 2-3 days and the amount of virus present was titered in MT-2 cells using luciferase enzyme activity as a marker by measuring luciferase enzyme activity. Luciferase was quantitated using the EnduRen Live Cell Substrate from Promega (Madison, Wis.). Antiviral activities of compounds toward the recombinant virus were quantified by measuring luciferase activity in MT-2 cells infected for 4-5 days with the recombinant virus in the presence of serial dilutions of the compound.
The 50% effective concentration (EC50) was calculated by using the exponential form of the median effect equation where (Fa)=1/[1+(ED50/drug conc.)^m] (Johnson VA, Byington RT. Infectivity Assay. In Techniques in HIV Research. ed. Aldovini A, Walker BD. 71-76. New York: Stockton Press. 1990). Curve fitting and analysis were performed with ActivityBase XE Runner software version 9.1.0.4 using model 203 (ID Business Solutions, LTD, Guildford, UK).

[2] = Compound cytotoxicity, XTT-based colorimetric assay; format: cell-based; settings: human, uninfected MT2 cells, day 4, XTT
Method: Compound cytotoxicity and the corresponding CC50 values were determined using the same protocol as described in the antiviral assay except that uninfected cells were used. Cytotoxicity was assessed on day 4 in uninfected MT2 cells by using a XTT (2,3-bis[2-Methoxy-4-nitro-5-sulfophenyl]-2H-tetrazolium-5-carboxyanilide inner salt)-based colorimetric assay (Sigma-Aldrich, St Louis, Mo.).

Row | SMILES | pEC50 [1] | CC50 at 4 day [2]
1 | O=C(Cn1ccc(C2CC2)n1)N[C@@H](Cc1cc(F)cc(F)c1)c1nc2cc(-c3ccccc3F)ccc2c(=O)n1-c1ccc(Cl)c2c(NS(=O)(=O)C3CC3)nn(CC(F)F)c12 (atropisomer, axis not shown) [Example 134, (S)-N-(1-(3-(4-chloro-3-(cyclopropanesulfonamido)-1-(2,2-difluoroethyl)-1H-indazol-7-yl)-7-(2-fluorophenyl)-4-oxo-3,4-dihydroquinazolin-2-yl)-2-(3,5-difluorophenyl)ethyl)-2-(3-cyclopropyl-1H-pyrazol-1-yl)acetamide] | 8.00 | > 1000 nM
2 | CC(C)c1ccn(CC(=O)N[C@@H](Cc2cc(F)cc(F)c2)c2nc3cc(-c4ccccc4F)ccc3c(=O)n2-c2ccc(Cl)c3c(NS(=O)(=O)C4CC4)nn(CC(F)F)c23)n1 (atropisomer, axis not shown) [Example 135, (S)-N-(1-(3-(4-chloro-3-(cyclopropanesulfonamido)-1-(2,2-difluoroethyl)-1H-indazol-7-yl)-7-(2-fluorophenyl)-4-oxo-3,4-dihydroquinazolin-2-yl)-2-(3,5-difluorophenyl)ethyl)-2-(3-isopropyl-1H-pyrazol-1-yl)acetamide] | 7.89 | > 1000 nM
3 | O=C(Cn1nc(C(F)F)cc1C(F)F)N[C@@H](Cc1cc(F)cc(F)c1)c1nc2cc(-c3ccccc3F)ccc2c(=O)n1-c1ccc(Cl)c2c(NS(=O)(=O)C3CC3)nn(CC(F)F)c12 (atropisomer, axis not shown) [Example 136, (S)-2-(3,5-bis(difluoromethyl)-1H-pyrazol-1-yl)-N-(1-(3-(4-chloro-3-(cyclopropanesulfonamido)-1-(2,2-difluoroethyl)-1H-indazol-7-yl)-7-(2-fluorophenyl)-4-oxo-3,4-dihydroquinazolin-2-yl)-2-(3,5-difluorophenyl)ethyl)acetamide] | 8.02 | > 1000 nM
4 | Cn1nc(NS(C)(=O)=O)c2c(Cl)ccc(-n3c([C@H](Cc4cc(F)cc(F)c4)NC(=O)Cn4nc(C(F)F)c5c4C(F)(F)[C@@H]4C[C@H]54)nc4cc(-c5ccccc5-c5ccccc5)ccc4c3=O)c21 (atropisomer, axis not shown; (aR)) [Example 9, N-((S)-1-(7-([1,1′-biphenyl]-2-yl)-3-(4-chloro-1-methyl-3-(methylsulfonamido)-1H-indazol-7-yl)-4-oxo-3,4-dihydroquinazolin-2-yl)-2-(3,5-difluorophenyl)ethyl)-2-((3bS,4aR)-3-(difluoromethyl)-5,5-difluoro-3b,4,4a,5-tetrahydro-1H-cyclopropa[3,4]cyclopenta[1,2-c]pyrazol-1-yl)acetamide] | 8.34 | > 1000 nM
5 | Cn1nc(NS(C)(=O)=O)c2c(Cl)ccc(-n3c([C@H](Cc4cc(F)cc(F)c4)NC(=O)Cn4nc(C(F)F)c5c4C(F)(F)[C@@H]4C[C@H]54)nc4cc(-c5ccc(Oc6ccccc6)cc5)ccc4c3=O)c21 (atropisomer, axis not shown; (aR)) [Example 14, N-((S)-1-(3-(4-chloro-1-methyl-3-(methylsulfonamido)-1H-indazol-7-yl)-4-oxo-7-(4-phenoxyphenyl)-3,4-dihydroquinazolin-2-yl)-2-(3,5-difluorophenyl)ethyl)-2-((3bS,4aR)-3-(difluoromethyl)-5,5-difluoro-3b,4,4a,5-tetrahydro-1H-cyclopropa[3,4]cyclopenta[1,2-c]pyrazol-1-yl)acetamide] | 8.01 | > 1000 nM
6 | Cn1nc(NS(C)(=O)=O)c2c(Cl)ccc(-n3c([C@H](Cc4cc(F)cc(F)c4)NC(=O)Cn4nc(C(F)F)c5c4C(F)(F)[C@@H]4C[C@H]54)nc4cc(-c5cccc(C(=O)O)c5)ccc4c3=O)c21 (atropisomer, axis not shown; (aR)) [Example 17, 3-(3-(4-chloro-1-methyl-3-(methylsulfonamido)-1H-indazol-7-yl)-2-((S)-1-(2-((3bS,4aR)-3-(difluoromethyl)-5,5-difluoro-3b,4,4a,5-tetrahydro-1H-cyclopropa[3,4]cyclopenta[1,2-c]pyrazol-1-yl)acetamido)-2-(3,5-difluorophenyl)ethyl)-4-oxo-3,4-dihydroquinazolin-7-yl)benzoic acid] | 8.01 | > 1000 nM
7 | Cn1nc(NS(C)(=O)=O)c2c(Cl)ccc(-n3c([C@H](Cc4cc(F)cc(F)c4)NC(=O)Cn4nc(C(F)F)c5c4C(F)(F)[C@@H]4C[C@H]54)nc4cc(-c5ccc(C(C)(C)O)cc5)ccc4c3=O)c21 (atropisomer, axis not shown; (aR)) [Example 18, N-((S)-1-(3-(4-chloro-1-methyl-3-(methylsulfonamido)-1H-indazol-7-yl)-7-(4-(2-hydroxypropan-2-yl)phenyl)-4-oxo-3,4-dihydroquinazolin-2-yl)-2-(3,5-difluorophenyl)ethyl)-2-((3bS,4aR)-3-(difluoromethyl)-5,5-difluoro-3b,4,4a,5-tetrahydro-1H-cyclopropa[3,4]cyclopenta[1,2-c]pyrazol-1-yl)acetamide] | 9.47 | > 1000 nM
8 | Cn1nc(NS(C)(=O)=O)c2c(Cl)ccc(-n3c([C@H](Cc4cc(F)cc(F)c4)NC(=O)Cn4nc(C(F)F)c5c4C(F)(F)[C@@H]4C[C@H]54)nc4cc(-c5cnc(F)c(F)c5)ccc4c3=O)c21 (atropisomer, axis not shown; (aR)) [Example 25, N-((S)-1-(3-(4-chloro-1-methyl-3-(methylsulfonamido)-1H-indazol-7-yl)-7-(5,6-difluoropyridin-3-yl)-4-oxo-3,4-dihydroquinazolin-2-yl)-2-(3,5-difluorophenyl)ethyl)-2-((3bS,4aR)-3-(difluoromethyl)-5,5-difluoro-3b,4,4a,5-tetrahydro-1H-cyclopropa[3,4]cyclopenta[1,2-c]pyrazol-1-yl)acetamide] | 9.60 | > 1000 nM
9 | Cc1cccc(C)c1-c1ccc2c(=O)n(-c3ccc(Cl)c4c(NS(C)(=O)=O)nn(C)c34)c([C@H](Cc3cc(F)cc(F)c3)NC(=O)Cn3nc(C(F)F)c4c3C(F)(F)[C@@H]3C[C@H]43)nc2c1 (atropisomer, axis not shown; (aR)) [Example 26, N-((S)-1-(3-(4-chloro-1-methyl-3-(methylsulfonamido)-1H-indazol-7-yl)-7-(2,6-dimethylphenyl)-4-oxo-3,4-dihydroquinazolin-2-yl)-2-(3,5-difluorophenyl)ethyl)-2-((3bS,4aR)-3-(difluoromethyl)-5,5-difluoro-3b,4,4a,5-tetrahydro-1H-cyclopropa[3,4]cyclopenta[1,2-c]pyrazol-1-yl)acetamide] | 9.14 | > 1000 nM
10 | Cn1nc(NS(C)(=O)=O)c2c(Cl)ccc(-n3c([C@H](Cc4cc(F)cc(F)c4)NC(=O)Cn4nc(C(F)F)c5c4C(F)(F)[C@@H]4C[C@H]54)nc4cc(-c5ccc6c(c5)CCCO6)ccc4c3=O)c21 (atropisomer, axis not shown; (aR)) [Example 28, N-((S)-1-(3-(4-chloro-1-methyl-3-(methylsulfonamido)-1H-indazol-7-yl)-7-(chroman-6-yl)-4-oxo-3,4-dihydroquinazolin-2-yl)-2-(3,5-difluorophenyl)ethyl)-2-((3bS,4aR)-3-(difluoromethyl)-5,5-difluoro-3b,4,4a,5-tetrahydro-1H-cyclopropa[3,4]cyclopenta[1,2-c]pyrazol-1-yl)acetamide] | 8.49 | > 1000 nM
11 | Cn1nc(NS(C)(=O)=O)c2c(Cl)ccc(-n3c([C@H](Cc4cc(F)cc(F)c4)NC(=O)Cn4nc(C(F)F)c5c4C(F)(F)[C@@H]4C[C@H]54)nc4cc(-c5cccc(F)c5)ccc4c3=O)c21 (atropisomer, axis not shown; (aR)) [Example 30, N-((S)-1-(3-(4-chloro-1-methyl-3-(methylsulfonamido)-1H-indazol-7-yl)-7-(3-fluorophenyl)-4-oxo-3,4-dihydroquinazolin-2-yl)-2-(3,5-difluorophenyl)ethyl)-2-((3bS,4aR)-3-(difluoromethyl)-5,5-difluoro-3b,4,4a,5-tetrahydro-1H-cyclopropa[3,4]cyclopenta[1,2-c]pyrazol-1-yl)acetamide] | 9.06 | > 1000 nM
12 | Cn1nc(NS(C)(=O)=O)c2c(Cl)ccc(-n3c([C@H](Cc4cc(F)cc(F)c4)NC(=O)Cn4nc(C(F)F)c5c4C(F)(F)[C@@H]4C[C@H]54)nc4cc(-c5cc(F)c(F)cc5F)ccc4c3=O)c21 [Example 171, N-((S)-1-(3-(4-chloro-1-methyl-3-(methylsulfonamido)-1H-indazol-7-yl)-4-oxo-7-(2,4,5-trifluorophenyl)-3,4-dihydroquinazolin-2-yl)-2-(3,5-difluorophenyl)ethyl)-2-((3bS,4aR)-3-(difluoromethyl)-5,5-difluoro-3b,4,4a,5-tetrahydro-1H-cyclopropa[3,4]cyclopenta[1,2-c]pyrazol-1-yl)acetamide] | 9.32 | –
